Here are results for 23 compounds from patent publication US20130005760A1, “HETEROCYCLIC COMPOUND HAVING AZOLE GROUP” (Toyama Chemical Co., Ltd., priority 2010, published 2013).

Some results are limits rather than exact numbers.

One data set deals with HIV-1 (JRCSF). Nature of the data set: Anti-HIV activity (Test Example 1-2): infected MaRBLE cells seeded on plate containing drug solution, luciferase readout after 7 days. Type of data set: cell-based. As to conditions: Human immunodeficiency virus 1, 168 h, MaRBLE cells infected with HIV-1 (JRCSF), 7 days culture, firefly luciferase, FORECAST linear regression (Excel). Here is the method:
(§1) This example was carried out by reference to Journal of Clinical Microbiology, 2007, Vol. 45, pages 477 to 487.
(§2) An anti-HIV activity was evaluated using MaRBLE cells obtained by transfection of HPB-M(a) derived from human T-lymphocytes with a luciferase gene of which expressions were regulated by HIV-1 LTR and a CCR5 gene etc.
A plate containing a drug solution was made by dispensing a fresh culture medium or an appropriately diluted test compound to a 96-well plate.
MaRBLE cells were suspended in RPMI1640 containing 10% FCS (fetal calf serum) and penicillin/streptomycin. After infected with HIV-1 (JRCSF), the cells were seeded on the above-described plate containing a drug solution ([…] cells/well). As a control group, the same number of uninfected cells were seeded.
After culturing at 37° C. under 5% CO2 for 7 days, an intracellular luciferase activity was measured using Dual-Glo Luciferase assay system (Promega).
(§3) The virus growth rate was calculated by the following equation.
(§4) Virus growth rate (%)=(A/B)×100
(§5) A=(Firefly luciferase activity in the well with the compound)−(Firefly luciferase activity of uninfected cells)
(§6) B=(Firefly luciferase activity in the well without the compound)−(Firefly luciferase activity of uninfected cells)
The IC50 of the compound was calculated by plotting the concentration with the logarithm and by plotting the virus growth rate with a real number, using the FORECAST function (linear regression technique) of Microsoft Office Excel 2003.
`Cc1noc(C)c1-c1cc2c(cc1F)c(=O)cc(C)n2Cc1ccccc1N` [Example 13, 1-(2-aminobenzyl)-7-(3,5-dimethylisoxazol-4-yl)-6-fluoro-2-methyl-1,4-dihydro-4-oxoquinoline] had an IC50 of 2.9 nM.

Consider `Cc1noc(C)c1-c1ccc2c(=O)cc(C)n(-c3cc(N)c(S(C)(=O)=O)cc3F)c2n1` [Example 33, 1-(5-amino-2-fluoro-4-(methylsulfonyl)phenyl)-7-(3,5-dimethylisoxazol-4-yl)-2-methyl-1,4-dihydro-4-oxo-1,8-naphthyridine], for which the IC50 turned out to be 0.87 nM.

For the compound `Cc1noc(C)c1-c1ccc2c(=O)cc(C)n(Cc3cc(F)cc(F)c3N)c2c1` [Example 14, 1-(2-amino-3,5-difluorobenzyl)-7-(3,5-dimethylisoxazol-4-yl)-2-methyl-1,4-dihydro-4-oxoquinoline], half-maximal inhibition (IC50) was put at 0.55 nM.

Regarding `Cc1noc(C)c1-c1ccc2c(=O)cc(C)n(Cc3ccc(Cl)c(F)c3N)c2c1` [Example 35, 1-(2-amino-4-chloro-3-fluorobenzyl)-7-(3,5-dimethylisoxazol-4-yl)-2-methyl-1,4-dihydro-4-oxoquinoline], the IC50 amounted to 2.6 nM.

Tested on in a further data set: not listed separately
In words: Pharmacokinetic study in mice (oral administration). In kind it is in vivo. As to conditions: mouse, serum, 25 mg/kg, male ICR mice, suspension in 0.5% methylcellulose 2.5 mg/mL at 10 mL/kg, 12 hours after administration, HPLC, read-out: serum concentration of the test compound. Here is the method:
The compounds of Examples 2, 4, 5, 12 and 16 were used as test compounds.
A test compound suspended in 0.5% methylcellulose (2.5 mg/mL) was orally administered at 10 mL/kg to male ICR mice (6 week-old, three animals in a group). At 12 hours after the administration, the blood of the mice was collected, and the concentrations of the test compound in the serum were measured by HPLC.
On to `Cc1noc(C)c1-c1ccc2c(=O)cc(C)n(Cc3ccccc3N)c2c1` [Example 5, 1-(2-aminobenzyl)-7-(3,5-dimethylisoxazol-4-yl)-2-methyl-1,4-dihydro-4-oxoquinoline], for which the concentration at 12 h is at least 500 ng/mL.

For the compound `CCc1cc(=O)c2ccc(-c3c(C)noc3C)cc2n1-c1cc(N)c(F)cc1F` [Example 16, 1-(5-amino-2,4-difluorophenyl)-7-(3,5-dimethylisoxazol-4-yl)-2-ethyl-1,4-dihydro-4-oxoquinoline], the concentration at 12 h is at least 500 ng/mL.

For another data set, the system named is HIV-1 (JRCSF). In words: Anti-HIV activity (Test Example 1-1): MaRBLE cells infected with HIV-1 (JRCSF), compound added 2 h after seeding, luciferase readout after 7 days. Type of data set: cell-based. The following applies: Human immunodeficiency virus 1, 168 h, 7 days culture, firefly luciferase, virus growth rate, 4 parameter Logistic Model (XLfit 4). Here is the method: as §1, §2
The MaRBLE cells were suspended in RPMI1640 containing 10% FCS (fetal calf serum) and penicillin/streptomycin. After infected with HIV-1 (JRCSF), the cells were seeded on a 96-well plate (1×10^5 cells/well). As a control group, the same number of uninfected cells were seeded.
After incubating the plate under the condition of 37° C. and 5% CO2 for 2 hours, a fresh culture medium or a culture medium containing an appropriately diluted test compound was added to each well.
After further culturing at 37° C. under 5% CO2 for 7 days, an intracellular luciferase activity was measured using Dual-Glo Luciferase assay system (Promega).
as §3, §4, §5, §6
The IC50 of the compound was calculated by applying virus growth rates of various concentrations to 4 parameter Logistic Model of curve-fitting software XLfit 4.
On to `Cc1noc(C)c1-c1ccc2c(=O)cc(CO)n(Cc3ccccc3N)c2c1` [Example 7, 1-(2-aminobenzyl)-7-(3,5-dimethylisoxazol-4-yl)-2-hydroxymethyl-1,4-dihydro-4-oxoquinoline], for which the midpoint of inhibition, the IC50, lay at 0.2 nM.

In turn, `Cc1noc(C)c1-c1ccc2c(=O)cc(N)n(-c3cc(N)c(F)cc3F)c2c1` [Example 20, 2-amino-1-(5-amino-2,4-difluorophenyl)-7-(3,5-dimethylisoxazol-4-yl)-1,4-dihydro-4-oxoquinoline] yielded an IC50 of 2.6 nM.

In the case of `Cc1noc(C)c1-c1ccc2c(=O)cc(C)n(Cc3ccccc3N)c2n1` [Example 29, 1-(2-aminobenzyl)-7-(3,5-dimethylisoxazol-4-yl)-2-methyl-1,4-dihydro-4-oxo-1,8-naphthyridine], the IC50 came out at 1.2 nM.

In the case of `Cc1noc(C)c1-c1ccc2c(=O)cc(CO)n(-c3ccc(F)cc3F)c2n1` [Example 26, 1-(2,4-difluorophenyl)-7-(3,5-dimethylisoxazol-4-yl)-2-hydroxymethyl-1,4-dihydro-4-oxo-1,8-naphthyridine], the IC50 came to 0.23 nM.

With `Cc1noc(C)c1-c1ccc2c(=O)cc(C)n(Cc3cccc(F)c3N)c2c1` [Example 11, 1-(2-amino-3-fluorobenzyl)-7-(3,5-dimethylisoxazol-4-yl)-2-methyl-1,4-dihydro-4-oxoquinoline], the IC50 was found to be 0.62 nM.

For the compound `Cc1noc(C)c1-c1ccc2c(=O)cc(CO)n(-c3cc(N)c(F)cc3F)c2c1` [Example 19, 1-(5-amino-2,4-difluorophenyl)-7-(3,5-dimethylisoxazol-4-yl)-2-(hydroxymethyl)-1,4-dihydro-4-oxoquinoline], 1.7 nM corresponded to half-maximal inhibition (IC50).

As for `Cc1noc(C)c1-c1ccc2c(=O)cc(C)n(-c3cc(N)c(S(C)(=O)=O)cc3F)c2c1` [Example 31, 1-(5-amino-2-fluoro-4-(methylsulfonyl)phenyl)-7-(3,5-dimethylisoxazol-4-yl)-2-methyl-1,4-dihydro-4-oxoquinoline], the IC50 came out at 1.8 nM.

For `Cc1noc(C)c1-c1ccc2c(=O)cc(N)n(-c3ccc(F)cc3F)c2c1` [Example 10, 2-amino-1-(2,4-difluorophenyl)-7-(3,5-dimethylisoxazol-4-yl)-1,4-dihydro-4-oxoquinoline], the IC50 was found to be 2.8 nM.

On to `CCc1cc(=O)c2ccc(-c3c(C)noc3C)cc2n1Cc1cccc(F)c1N` [Example 17, 1-(2-amino-3-fluorobenzyl)-7-(3,5-dimethylisoxazol-4-yl)-2-ethyl-1,4-dihydro-4-oxoquinoline], for which it took 0.26 nM to reach half-maximal inhibition (IC50).

`Cc1noc(C)c1-c1ccc2c(=O)cc(CN)n(-c3ccc(F)cc3F)c2n1` [Example 27, 2-(aminomethyl)-1-(2,4-difluorophenyl)-7-(3,5-dimethylisoxazol-4-yl)-1,4-dihydro-4-oxo-1,8-naphthyridine] came in with an IC50 of 0.3 nM.

For `Cc1noc(C)c1-c1ccc2c(=O)cc(N)n(-c3ccc(F)cc3F)c2n1` [Example 28, 2-amino-1-(2,4-difluorophenyl)-7-(3,5-dimethylisoxazol-4-yl)-1,4-dihydro-4-oxo-1,8-naphthyridine], the half-inhibitory concentration (IC50) was determined as 0.3 nM.

Compound `Cc1noc(C)c1-c1ccc2c(=O)cc(CO)n(-c3ccc(F)cc3F)c2c1` [Example 22, 1-(2,4-difluorophenyl)-7-(3,5-dimethylisoxazol-4-yl)-2-hydroxymethyl-1,4-dihydro-4-oxoquinoline] yielded an IC50 of 0.6 nM.

Turning to `Cc1noc(C)c1-c1ccc2c(=O)cc(C)n(-c3ccc(F)cc3F)c2n1` [Example 25, 1-(2,4-difluorophenyl)-7-(3,5-dimethylisoxazol-4-yl)-2-methyl-1,4-dihydro-4-oxo-1,8-naphthyridine], the IC50 was 0.64 nM.

The compound `CCc1cc(=O)c2ccc(-c3c(C)noc3C)cc2n1-c1cc(N)c(F)cc1F` [Example 16, 1-(5-amino-2,4-difluorophenyl)-7-(3,5-dimethylisoxazol-4-yl)-2-ethyl-1,4-dihydro-4-oxoquinoline] had an IC50 of 7.2 nM.

Regarding `Cc1noc(C)c1-c1ccc2c(=O)cc(CO)n(-c3cc(N)c(F)cc3F)c2n1` [Example 24, 1-(5-amino-2,4-difluorophenyl)-7-(3,5-dimethylisoxazol-4-yl)-2-hydroxymethyl-1,4-dihydro-4-oxo-1,8-naphthyridine], the IC50 was 0.54 nM.

As for `Cc1noc(C)c1-c1ccc2c(=O)cc(C)n(-c3cc(N)c(Cl)cc3F)c2n1` [Example 34, 1-(5-amino-4-chloro-2-fluorophenyl)-7-(3,5-dimethylisoxazol-4-yl)-2-methyl-1,4-dihydro-4-oxo-1,8-naphthyridine], the IC50 came to 0.48 nM.

In the case of `Cc1noc(C)c1-c1ccc2c(=O)cc(C)n(Cc3ccccc3N)c2c1` [Example 5-2, 1-(2-aminobenzyl)-7-(3,5-dimethylisoxazol-4-yl)-2-methyl-1,4-dihydro-4-oxoquinoline.½ pinacol adduct], the IC50 came to 0.27 nM.

Compound `Cc1noc(C)c1-c1ccc2c(=O)cc(C)n(Cc3cccnc3N)c2c1` [Example 18, 1-((2-aminopyridin-3-yl)methyl)-7-(3,5-dimethylisoxazol-4-yl)-2-methyl-1,4-dihydro-4-oxoquinoline] gave an IC50 of 3.5 nM.
